Laboratory results as given in ChEMBL document CHEMBL1129709, “(Hydroxyethyl) sulfonamide HIV-1 Protease inhibitors: Identification of the 2-methylbenzoyl moiety at P-2” (Bioorg Med Chem Lett, 1996).

Key:
[1] = biological target: T1, Human immunodeficiency virus type 1 protease (Human immunodeficiency virus 1, UniProt Q72874); test: Inhibitory activity against HIV-1 protease in spectrofluorimetric assay
CCRF-CEM [2] = test: Antiviral activity was evaluated against HIV-IIIB strain of HIV-1 in CEM cell culture assay; format: functional, cell-based; conditions: Homo sapiens
CCRF-CEM [3] = test: Toxic dose was evaluated against HIV-IIIB strain of HIV-1 in CEM cell culture assay; conditions: Homo sapiens, CEM cells; read-out: TD50 (the source's name)
[4] = biological target: T1, Human immunodeficiency virus type 1 protease; test: Inhibitory activity was evaluated against recombinant HIV-1 protease using spectrofluorimetric assay
[5] = Maximum concentration was evaluated in rats; format: ADME, organism-based; conditions: rat, in vivo
[6] = Bioavailability in rat; format: ADME, organism-based; conditions: in vivo
[7] = Half-life was evaluated in rats; format: ADME, organism-based; conditions: rat, in vivo

Row | EC50 (CCRF-CEM [2]) [nM] | Structure (SMILES) | IC50 [1] [nM] | CC50 (CCRF-CEM [3]) [nM] | other results
1 |  | COc1ccc(S(=O)(=O)N(CC(C)C)C[C@@H](O)[C@H](Cc2ccccc2)NC(=O)c2ccccc2C(C)C)cc1 | 49 |  | 
2 |  | COc1ccc(S(=O)(=O)N(CC(C)C)C[C@@H](O)[C@H](Cc2ccccc2)NC(=O)c2ccccc2O)cc1 | 900 |  | 
3 | 200 | COc1ccc(S(=O)(=O)N(CC(C)C)C[C@@H](O)[C@H](Cc2ccccc2)NC(=O)c2ccccc2C)cc1 |  |  | 
4 |  | COc1ccc(S(=O)(=O)N(CC(C)C)C[C@@H](O)[C@H](Cc2ccccc2)NC(=O)c2ccccc2C(F)(F)F)cc1 | 37 |  | 
5 |  | COc1ccc(S(=O)(=O)N(CC(C)C)C[C@@H](O)[C@H](Cc2ccccc2)NC(=O)c2cc(O)ccc2C)cc1 |  | > 10000 | IC50 [4]: 40 nM
6 | 7 | COc1ccc(S(=O)(=O)N(CC(C)C)C[C@@H](O)[C@H](Cc2ccccc2)NC(=O)c2cccc(O)c2C)cc1 |  | > 10000 | Cmax [5]: 270 ng/mL; bioavailability [6]: 12%; half-life [7]: 1 h
7 |  | COc1ccc(S(=O)(=O)N(CC(C)C)C[C@@H](O)[C@H](Cc2ccccc2)NC(=O)c2cccc(C)c2)cc1 | 27 |  | 
8 | 18 | COc1ccc(S(=O)(=O)N(CC(C)C)C[C@@H](O)[C@H](Cc2ccccc2)NC(=O)c2ccc(N)cc2C)cc1 |  |  | 
9 | 18 | COc1ccc(S(=O)(=O)N(CC(C)C)C[C@@H](O)[C@H](Cc2ccccc2)NC(=O)c2cccc(N)c2C)cc1 |  | > 10000 | Cmax [5]: 1800 ng/mL; bioavailability [6]: 54%; half-life [7]: 1 h
10 | 82 | COc1ccc(S(=O)(=O)N(CC(C)C)C[C@@H](O)[C@H](Cc2ccccc2)NC(=O)c2cc(N)ccc2C)cc1 |  | > 10000 | 
11 |  | COc1ccc(S(=O)(=O)N(CC(C)C)C[C@@H](O)[C@H](Cc2ccccc2)NC(=O)c2ccc(C)cc2)cc1 | 15 |  | 

Row | Structure (SMILES) | EC50 (CCRF-CEM [2]) [nM] | IC50 [1] [nM] | CC50 (CCRF-CEM [3]) [nM] | other results
12 | COc1ccc(S(=O)(=O)N(CC(C)C)C[C@@H](O)[C@H](Cc2ccccc2)NC(=O)c2ccc(O)cc2C)cc1 | 9 |  | > 10000 | IC50 [4]: 5 nM
